Measured values: US20250188150A1, “PEPTIDES FOR THE TREATMENT OF FIBROSIS” (Technion Research & Development Foundation Limited, priority 2022, published 2025)

Columns and labels:
LOXL3 [1] = molecular target: T1, LOXL3 (Homo sapiens, UniProt P58215); assay: Oxidation assay of peptides by LOXL3; type: biochemical; settings: for oxidation of the peptide by LOXL3: oxidation assay
T1 sequence (P58215 26-753): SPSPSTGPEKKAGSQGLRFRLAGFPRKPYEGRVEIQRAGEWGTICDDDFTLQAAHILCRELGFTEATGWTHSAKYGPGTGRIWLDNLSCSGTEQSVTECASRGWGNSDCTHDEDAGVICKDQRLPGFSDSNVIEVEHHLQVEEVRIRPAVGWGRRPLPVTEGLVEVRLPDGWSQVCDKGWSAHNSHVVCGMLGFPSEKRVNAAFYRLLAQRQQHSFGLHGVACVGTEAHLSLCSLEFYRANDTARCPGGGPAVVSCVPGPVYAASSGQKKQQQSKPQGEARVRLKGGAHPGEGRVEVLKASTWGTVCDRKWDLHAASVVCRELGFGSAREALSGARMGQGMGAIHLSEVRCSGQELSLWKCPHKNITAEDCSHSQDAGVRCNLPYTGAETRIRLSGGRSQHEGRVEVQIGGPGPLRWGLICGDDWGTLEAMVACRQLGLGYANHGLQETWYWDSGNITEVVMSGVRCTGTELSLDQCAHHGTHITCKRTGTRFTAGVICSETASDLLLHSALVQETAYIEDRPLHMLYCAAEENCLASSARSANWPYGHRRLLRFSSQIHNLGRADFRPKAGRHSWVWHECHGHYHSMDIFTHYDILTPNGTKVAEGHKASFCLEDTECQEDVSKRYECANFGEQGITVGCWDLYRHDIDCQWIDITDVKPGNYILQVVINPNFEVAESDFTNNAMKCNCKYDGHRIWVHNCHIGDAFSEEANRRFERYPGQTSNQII

lung fibroblasts = assay: Lung fibroblast proliferation (culture confluency) with peptides; type: cell-based; settings: following 72 hours in culture
Description: Note the lack of effect in the first day of culturing (G).

HDF cells = assay: HDF cell area after exposure to peptides; type: cell-based, human; settings: HDF on glass without external FN coating, fixed after 1 week; compared with control peptides or untreated sample
Method: (§1) Adhesion, cell area andfibronectin analysis: All of the adhesion and fibronectin fibrils analyses shown in this paper were performed using the trainable Weka segmentation plugin (41) of ImageJ (NIH) software.
Representative images (FIGS. 9A-E) of HDF cell contour following exposure to the different peptides (9B—SEQ ID NO: 21, 9C—SEQ ID NO: 22; 9D—SEQ ID NO: 19; 9E—SEQ ID NO: 20), seeded on glass without external FN coating and fixed after 1 week (A-E, scale=100 μm) illustrate that inhibitor peptides reduce cell size.

[2] = system: human dermal fibroblast (HDF) cells; assay: Fibronectin fibrillogenesis (FN immunostaining) under HDF cells exposed to peptides; type: cell-based; settings: HDF on glass without external FN coating, fixed after 1 week; compared with control peptides (FN1-3, FN1-9) or untreated sample
Method: as §1
Immunofluorescence: Cells were fixed with 4% paraformaldehyde solution (36% stock, Sigma-Aldrich, 50-00-0, diluted with PBS) and permeabilized with 0.1% Triton X-100 in PBS (PBT 0.1%). Primary antibodies were incubated with the fixed cells over night at 4° C. After, secondary antibodies and phalloidin were incubated for 1 hour at room temperature. For dSTORM imaging, a second 10 minutes fixation was performed at the end of the immunostaining protocol.
Representative images (FIGS. 8A-E) of fibronectin immunostaining (color-coded for intensity) underneath human dermal fibroblast (HDF) cells exposed to the different peptides (8B—SEQ ID NO: 21, 8C—SEQ ID NO: 22; 8D—SEQ ID NO: 19; 8E—SEQ ID NO: 20), seeded on glass without external FN coating and fixed after 1 week (A-E, scale=20 μm) illustrate that inhibitor peptides block fibronectin fibrillogenesis.

LOXL3 [3] = molecular target: T1, LOXL3; assay: Spreading and adhesion of Pax-GFP cells on LOXL3-treated FN with or without βAPN; type: cell-based; set-up: purchased R&D systems 6069-AO
Method: Spreading and soft gel experiments: Ibidi 8-wellplates (Ibidi, 190814/1) were coated with human plasma FN (hFN, Sigma-Aldrich, FC010-10MG, 10 μg/ml) for 1 hour at 37° C. Afterwards, the samples were treated with human recombinant LOXL3 (RhLOXL3, R&D systems, 6069-AO) or LOXL2 (RhLOXL2, R&D systems, 2639-AO) for 5 hours (or sodium borate buffer 50 mM as control), with or without 200 mM βAPN (Sigma, A3134-25G) and then washed. Then, cells were seeded on the FN matrix and fixed at varying time points after spreading, followed by immunostaining. For soft gel experiments, Ibidi 8-well plates were covered with silicone gels (DOWSIL, CY 52-276 A&B), prepared at different rigidities that were previously calibrated and described (42) previous to FN coating. Images were acquired using an LSM800 confocal microscope (Zeiss) with Airyscan function and 20× or 63× objectives. […]
Nascent adhesion formation, even on very stiff matrices, requires at least four RGD (Arg-Gly-Asp) ligands that are localized within ˜60 nm from each other (35, 36). […] Towards that end, following enzymatic treatment, FN was coated on glass coverslips and Pax-GFP cells were added and shortly after (15 or 30 minutes) fixed and analyzed.

DQCQDSETGTFYQIGDSWEKYVHGVRYQCYCYGRGIGEWHCQPL (FN1-9 (control peptide))
oxidation of the peptide by LOXL3 (LOXL3 [1]): not the control peptides (FN1-3 and FN1-9) undergo oxidation by LOXL3 | culture confluency (cell proliferation) (lung fibroblasts): not with the control peptide (FN1-9) inhibit cell proliferation

ETCFDKYTGNTYRVGDTYERPKDSMIWDCTCIGAGRGRISCTIA (FN1-2 (Inhibitor peptide) long version of FN1-2)
cell area (HDF cells): significant reduction | total fibronectin fibrils [2]: reduction in fibrils | oxidation of the peptide by LOXL3 (LOXL3 [1]): undergo oxidation by LOXL3 | culture confluency (cell proliferation) (lung fibroblasts): inhibit cell proliferation

N#CCCN [βAPN, beta-aminopropionitrile]
cell spreading on LOXL3-treated FN (LOXL3 [3]; βAPN added following the FN treatment, compared to treated FN without the inhibitor): no difference was observed in cell spreading | increases in adhesion sizes and cell areas on LOXL3-treated FN (LOXL3 [3]; βAPN added to the FN-LOXL3 mix throughout the reaction, glass, 15 minutes): blocked | effect on LOXL3 oxidation of inhibitor peptides (LOXL3 [1]; addition of βAPN to the oxidation assay): oxidation is inhibited
